Results as given in ChEMBL document CHEMBL1201862, “PubChem BioAssay data set” (2004).
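Protocol summary: plate cells (96-well), add compound at 5 concentrations, incubate 48 h, interpolate endpoints linearly. GI50 = concentration required for 50% inhibition of growth.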 Activity calls are given as the source filed them. Cut-off read from the data, not from the text of the source: active = GI50 up to about 1.1 µM and inactive = higher.

Experiments:
Assay in all cases: NCI tumour cell line growth inhibition, 48 h
786-0 = test system: 786-0
A549 = test system: A549
ACHN = test system: ACHN
CAKI-1 = test system: CAKI-1
CCRF-CEM = test system: CCRF-CEM
COLO 205 = test system: COLO 205
DU-145 = test system: DU-145
EKVX = test system: EKVX
HCC 2998 = test system: HCC 2998
HCT-116 = test system: HCT-116
HCT-15 = test system: HCT-15
HL-60 = test system: HL-60
HOP-62 = test system: HOP-62
HOP-92 = test system: HOP-92
HT-29 = test system: HT-29
Hs-578T = test system: Hs-578T
IGROV-1 = test system: IGROV-1
K562 = test system: K562
KM12 = test system: KM12
LOX IMVI = test system: LOX IMVI
M14 = test system: M14
MCF7 = test system: MCF7
MDA-MB-231 = test system: MDA-MB-231
MDA-MB-435 = test system: MDA-MB-435
MDA-N = test system: MDA-N
MOLT-4 = test system: MOLT-4
Malme-3M = test system: Malme-3M
NCI-H226 = test system: NCI-H226
NCI-H23 = test system: NCI-H23
NCI-H460 = test system: NCI-H460
NCI/ADR-RES = test system: NCI/ADR-RES
OVCAR-3 = test system: OVCAR-3
OVCAR-4 = test system: OVCAR-4
OVCAR-5 = test system: OVCAR-5
OVCAR-8 = test system: OVCAR-8
PC-3 = test system: PC-3
RPMI-8226 = test system: RPMI-8226
RXF 393 = test system: RXF 393
SF-268 = test system: SF-268
SF-295 = test system: SF-295
SF-539 = test system: SF-539
SK-MEL-28 = test system: SK-MEL-28
SK-MEL-2 = test system: SK-MEL-2
SK-MEL-5 = test system: SK-MEL-5
SK-OV-3 = test system: SK-OV-3
SN12C = test system: SN12C
SNB-19 = test system: SNB-19
SNB-75 = test system: SNB-75
SR = test system: SR
SW-620 = test system: SW-620
T47D = test system: T47D
TK-10 = test system: TK-10
U-251 = test system: U-251
UACC-257 = test system: UACC-257
UACC-62 = test system: UACC-62
UO-31 = test system: UO-31
A498 = test system: A498
BT-549 = test system: BT-549

NCCCc1nonc1C(=O)O
GI50 (786-0): > 100 µM (inactive) | GI50 (A549): > 100 µM (inactive) | GI50 (ACHN): > 100 µM (inactive) | GI50 (CAKI-1): > 100 µM (inactive) | GI50 (CCRF-CEM): > 100 µM (inactive) | GI50 (COLO 205): > 100 µM (inactive) | GI50 (DU-145): > 100 µM (inactive) | GI50 (EKVX): > 100 µM (inactive) | GI50 (HCC 2998): > 100 µM (inactive) | GI50 (HCT-116): > 100 µM (inactive) | GI50 (HCT-15): > 100 µM | GI50 (HL-60): > 100 µM (inactive) | GI50 (HOP-62): > 100 µM (inactive) | GI50 (HOP-92): > 100 µM (inactive) | GI50 (HT-29): > 100 µM (inactive) | GI50 (Hs-578T): > 100 µM (inactive) | GI50 (IGROV-1): > 100 µM (inactive) | GI50 (K562): > 100 µM (inactive) | GI50 (KM12): > 100 µM (inactive) | GI50 (LOX IMVI): > 100 µM (inactive) | GI50 (M14): > 100 µM (inactive) | GI50 (MCF7): > 100 µM (inactive) | GI50 (MDA-MB-231): > 100 µM (inactive) | GI50 (MDA-MB-435): > 100 µM (inactive) | GI50 (MDA-N): > 100 µM (inactive) | GI50 (MOLT-4): > 100 µM (inactive) | GI50 (Malme-3M): > 100 µM (inactive) | GI50 (NCI-H226): > 100 µM (inactive) | GI50 (NCI-H23): > 100 µM (inactive) | GI50 (NCI-H460): > 100 µM (inactive) | GI50 (NCI/ADR-RES): > 100 µM (inactive) | GI50 (OVCAR-3): > 100 µM (inactive) | GI50 (OVCAR-4): > 100 µM (inactive) | GI50 (OVCAR-5): > 100 µM (inactive) | GI50 (OVCAR-8): > 100 µM (inactive) | GI50 (PC-3): > 100 µM (inactive) | GI50 (RPMI-8226): > 100 µM (inactive) | GI50 (RXF 393): > 100 µM (inactive) | GI50 (SF-268): > 100 µM (inactive) | GI50 (SF-295): > 100 µM (inactive) | GI50 (SF-539): > 100 µM (inactive) | GI50 (SK-MEL-28): > 100 µM (inactive) | GI50 (SK-MEL-2): > 100 µM (inactive) | GI50 (SK-MEL-5): > 100 µM (inactive) | GI50 (SK-OV-3): > 100 µM (inactive) | GI50 (SN12C): > 100 µM (inactive) | GI50 (SNB-19): > 100 µM (inactive) | GI50 (SNB-75): > 100 µM (inactive) | GI50 (SR): > 100 µM (inactive) | GI50 (SW-620): > 100 µM (inactive) | GI50 (T47D): > 100 µM (inactive) | GI50 (TK-10): > 100 µM (inactive) | GI50 (U-251): > 100 µM (inactive) | GI50 (UACC-257): > 100 µM (inactive) | GI50 (UACC-62): > 100 µM (inactive) | GI50 (UO-31): > 100 µM (inactive)

CCCCc1ccc(-n2sc3ncc(-c4ccccc4)cc3c2=O)cc1
GI50 (786-0): > 100 µM (inactive) | GI50 (A498): > 100 µM (inactive) | GI50 (A549): > 100 µM (inactive) | GI50 (ACHN): > 100 µM (inactive) | GI50 (BT-549): 59.6 µM (inactive) | GI50 (CAKI-1): 64.3 µM (inactive) | GI50 (CCRF-CEM): > 100 µM (inactive) | GI50 (COLO 205): > 100 µM (inactive) | GI50 (DU-145): > 100 µM (inactive) | GI50 (EKVX): > 100 µM (inactive) | GI50 (HCC 2998): > 100 µM (inactive) | GI50 (HCT-116): > 100 µM (inactive) | GI50 (HCT-15): > 100 µM | GI50 (HL-60): > 100 µM (inactive) | GI50 (HOP-62): > 100 µM (inactive) | GI50 (HOP-92): > 100 µM (inactive) | GI50 (IGROV-1): > 100 µM (inactive) | GI50 (K562): > 100 µM (inactive) | GI50 (KM12): > 100 µM (inactive) | GI50 (LOX IMVI): > 100 µM (inactive) | GI50 (M14): > 100 µM (inactive) | GI50 (MCF7): > 100 µM (inactive) | GI50 (MDA-MB-435): > 100 µM (inactive) | GI50 (MDA-N): > 100 µM (inactive) | GI50 (MOLT-4): > 100 µM (inactive) | GI50 (NCI-H226): > 100 µM (inactive) | GI50 (NCI-H23): > 100 µM (inactive) | GI50 (NCI-H460): > 100 µM (inactive) | GI50 (NCI/ADR-RES): > 100 µM (inactive) | GI50 (OVCAR-3): > 100 µM (inactive) | GI50 (OVCAR-4): 42.1 µM (inactive) | GI50 (OVCAR-5): > 100 µM (inactive) | GI50 (OVCAR-8): 43.2 µM (inactive) | GI50 (PC-3): > 100 µM (inactive) | GI50 (RPMI-8226): > 100 µM (inactive) | GI50 (RXF 393): > 100 µM (inactive) | GI50 (SF-295): > 100 µM (inactive) | GI50 (SK-MEL-28): > 100 µM (inactive) | GI50 (SK-MEL-2): > 100 µM (inactive) | GI50 (SK-MEL-5): > 100 µM (inactive) | GI50 (SK-OV-3): > 100 µM (inactive) | GI50 (SN12C): > 100 µM (inactive) | GI50 (SNB-19): > 100 µM (inactive) | GI50 (SNB-75): > 100 µM (inactive) | GI50 (SR): > 100 µM (inactive) | GI50 (SW-620): > 100 µM (inactive) | GI50 (T47D): 22.6 µM (inactive) | GI50 (TK-10): > 100 µM (inactive) | GI50 (U-251): > 100 µM (inactive) | GI50 (UACC-257): > 10 µM (inactive) | GI50 (UACC-62): > 100 µM (inactive) | GI50 (UO-31): > 100 µM (inactive)
